Where a SMILES comes first, the peptide text is derived from it. Bridges are numbered along the chain shown (N, C = ends). [ ]: non-standard residue; d: D form. The star is where a group is joined. Ileψ(thiazoline)Cys = CC[C@H](C)[C@H](N)C1=N[C@H](C(=O)*)CS1; dOrn = NCCC[C@@H](N)C(=O)O
Legend:
[1] = system: strain ATCC 13032 pSen0706; experiment: In vivo EYFP fluorescence of sensor strain ATCC 13032 pSen0706 (cg0706 promoter) as a function of antibiotic concentration, BioLector; type: cell-based, Corynebacterium glutamicum; details: ATCC 13032 pSen0706 in CGXII medium, 24 hours; antibiotic added after 4 hours; Vancomycine 0; 1.25; 2.5; 5; 10; 15; 20 μg/ml; Bacitracin 0; 1; 4 μg/ml; excitation 485 nm, emission 520/10 nm; FIGS. 1 and 2
Protocol: (§1) c) Detection of the fluorescence as a function of the concentration of a compound that is characterized by an antibiotic activity due to its property to damage the membrane of a bacterial cell.
The examination of in vivo fluorescence emission was carried out by culturing the cells of strain ATCC 13032 pSen0706 with 0.8 ml CGXII medium (Keilhauer et al, 1993, J. Bacteriol. 175: 5595-603) in microtiter dimension (Flowerplate® MTP-48-B) in the BioLector system (m2p-labs GmbH, 52499 Baesweiler, Germany). This system allows for the parallel cultivation of 48 cultures and regular and automated optical measurements of the culture growth as well as the fluorescence. 10 cultures with cells of strain ATCC 13032 pSen0706 were inoculated to an OD of 0.1 and cultured for 24 hours. After 4 hours the antibiotic substances Vancomycine or Bacitracine were added to the cultures. Vancomycine-concentrations were adjusted to 0; 1.25; 2.5; 5; 10; 15; 20 μg/ml and Bacitracin-concentrations were adjusted to 0; 1; 4 μg/ml. Every 10 minutes the cell densities of cultures and the fluorescence were measured. The fluorescence was excited with light of wavelength 485 nm, the fluorescence emission measurement of EYFP was carried out at 520/10 nm. The fluorescence of the cultures has been digitally recorded by means of the BioLection V.2.4.1.0 software.

[2] = system: strain ATCC 13032 pSen1325; experiment: In vivo EYFP fluorescence of sensor strain ATCC 13032 pSen1325 (cg1325 promoter) as a function of antibiotic concentration, BioLector; type: cell-based, Corynebacterium glutamicum; details: ATCC 13032 pSen1325 in CGXII medium, 24 hours; antibiotic added after 4 hours; Vancomycine 0; 1.25; 2.5; 5; 10; 15; 20 μg/ml; Bacitracin 0; 0.25; 0.5; 1; 2; 4 μg/ml; excitation 485 nm, emission 520/10 nm
Protocol: as §1
The examination of in vivo fluorescence emission was carried out by culturing the cells of strain ATCC 13032 pSen1325 with 0.8 ml CGXII medium (Keilhauer et al, 1993, J. Bacteriol. 175: 5595-603) in microtiter dimension (Flowerplate® MTP-48-B) in the BioLector system (m2p-labs GmbH, 52499 Baesweiler, Germany). 13 cultures with cells of strain ATCC 13032 pSen1325 were inoculated to an OD of 0.1 and cultured for 24 hours. After 4 hours the antibiotic substances Vancomycine or Bacitracine were added to the cultures. Vancomycine-concentrations were adjusted to 0; 1.25; 2.5; 5; 10; 15; 20 μg/ml and Bacitracin-concentrations were adjusted to 0; 0.25; 0.5; 1; 2; 4 μg/ml. Every 10 minutes the cell densities of cultures and the fluorescence were measured. The fluorescence was excited with light of wavelength 485 nm, the fluorescence emission measurement of EYFP was carried out at 520/10 nm. The fluorescence of the cultures has been digitally recorded by means of the BioLection V.2.4.1.0 software.

Row | Compound | fluorescence emission of cultures as a function of the concentration of the compound [1] | fluorescence emission of cultures as a function of the concentration of the compound [2]
1 | CC[C@H](C)[C@H](N)C1=N[C@H](C(=O)N[C@@H](CC(C)C)C(=O)N[C@H](CCC(=O)O)C(=O)N[C@H](C(=O)N[C@H]2CCCCNC(=O)[C@H](CC(N)=O)NC(=O)[C@@H](CC(=O)O)NC(=O)[C@H](Cc3cnc[nH]3)NC(=O)[C@@H](Cc3ccccc3)NC(=O)[C@H]([C@@H](C)CC)NC(=O)[C@@H](CCCN)NC2=O)[C@@H](C)CC)CS1 [Bacitracine] ({Ileψ(thiazoline)Cys}-L[dE]IK[dOrn]I[dF]H[dD]N; lactam 4-C) | fluorescence emissions of cultures with different Vancomycine or Bacitracine concentrations also differs | fluorescence emissions of cultures with different Vancomycine or Bacitracine concentrations also differs
2 | CN[C@H](CC(C)C)C(=O)N[C@H]1C(=O)N[C@@H](CC(N)=O)C(=O)N[C@H]2C(=O)N[C@H]3C(=O)N[C@H](C(=O)N[C@H](C(=O)O)c4cc(O)cc(O)c4-c4cc3ccc4O)[C@H](O)c3ccc(c(Cl)c3)Oc3cc2cc(c3O[C@@H]2O[C@H](CO)[C@@H](O)[C@H](O)[C@H]2O[C@H]2C[C@](C)(N)[C@H](O)[C@H](C)O2)Oc2ccc(cc2Cl)[C@H]1O [Vancomycine] | fluorescence emissions of cultures with different Vancomycine or Bacitracine concentrations also differs | fluorescence emissions of cultures with different Vancomycine or Bacitracine concentrations also differs

Reference: US11236401B2, “Sensors for detection and quantification of microbiological protein secretion” (SenseUp GmbH, priority 2015, dated 2022)
